Results published in patent publication US20040235794A1, “Remedies for respiratory diseases comprising sphingosine-1-phosphate receptor controller” (priority 2001, published 2004).
Blank lines part the entries; values can stand above or below the compound they belong to.

What was measured:
[1] = tested on: human airway smooth muscle cells; experiment: Cell toxicity assessment using released LDH; assay type: cell-based; conditions: released LDH as indicator
[2] = tested on: anesthetized guinea pig; experiment: Inhibition of S1P-induced increase of airway resistance of anesthetized guinea pig in vivo; conditions: S1P 0.1 mg/mL inhaled; compound intravenously injected after increase of airway resistance
Procedure: The measurement of guinea pig airway resistance was carried out by the modified Konzett and Rossler method (Naunyn-Schmied. Arch. Exp. Path. Pharmak. 195, 71- ). Male Hartley guinea pigs (5 to 7 weeks-old, 300 to 500 g body weight in use) were anesthetized by pentobarbital (50 mg/kg intraabdominal dosage), and fixed at dorsal position. Then, trachea and jugular were cannulated. Airway was managed by a respirator (5 mL/stroke, 60 strokes/min) and air road was diverged with a T-tube and connected to broncho-spasm-transducer and airway resistance was measured. To guinea pigs, gallamine (1 mg/kg, i.v.) was administered and immobilized. S1P was vaporized and inhaled with supersonic wave type nebulizer for five minutes (Jpn. J. Pharm. 50, 445-466 (1989)). S1P (0.1 mg/mL) was inhaled to the anesthetized guinea pig, and airway resistance was measured. After a increase of strong airway resistance was recognized, compound 1 was intravenously injected.

[3] = biological target: T1, EDG-3 (Homo sapiens, UniProt Q99500); experiment: Antagonistic activity for EDG-3 (S1P-induced intracellular calcium, CHO cells); assay type: cell-based; conditions: CHO cells expressing EDG-3, S1P 100 nM
T1 construct: expressed in transfected cells; host or cells: CHO inferred from 'method as in EDG-5'
T1 sequence (Q99500 whole entry): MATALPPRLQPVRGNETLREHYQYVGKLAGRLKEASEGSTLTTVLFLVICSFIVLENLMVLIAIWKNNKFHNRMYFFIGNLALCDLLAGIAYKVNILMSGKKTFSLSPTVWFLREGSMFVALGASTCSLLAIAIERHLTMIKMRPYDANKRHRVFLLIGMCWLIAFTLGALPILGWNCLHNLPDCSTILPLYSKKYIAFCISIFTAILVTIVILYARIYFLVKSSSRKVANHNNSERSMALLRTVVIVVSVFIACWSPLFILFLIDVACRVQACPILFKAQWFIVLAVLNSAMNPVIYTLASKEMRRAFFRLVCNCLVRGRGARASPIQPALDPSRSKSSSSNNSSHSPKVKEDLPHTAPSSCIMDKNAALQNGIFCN

[4] = biological target: T2, human EDG-1 (Homo sapiens, UniProt P21453); experiment: Antagonistic activity for EDG-1 (S1P-induced intracellular calcium, CHO cells); assay type: cell-based; conditions: CHO cells expressing human EDG-1, S1P 100 nM
T2 construct: expressed in transfected cells; host or cells: CHO inferred from 'method as in EDG-5'; the EDG-1 sentence says only 'cells'
T2 sequence (P21453 whole entry): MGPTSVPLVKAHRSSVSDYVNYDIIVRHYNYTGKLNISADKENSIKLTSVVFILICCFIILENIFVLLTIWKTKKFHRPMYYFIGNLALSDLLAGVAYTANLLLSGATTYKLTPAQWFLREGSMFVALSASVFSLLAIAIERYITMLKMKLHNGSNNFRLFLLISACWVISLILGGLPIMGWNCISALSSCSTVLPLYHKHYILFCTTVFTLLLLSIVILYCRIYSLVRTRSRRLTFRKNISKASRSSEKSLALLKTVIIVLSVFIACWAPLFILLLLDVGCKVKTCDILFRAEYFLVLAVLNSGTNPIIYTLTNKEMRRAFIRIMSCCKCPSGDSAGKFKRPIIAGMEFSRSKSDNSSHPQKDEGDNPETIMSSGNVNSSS

[5] = biological target: T3, human EDG-5 (Homo sapiens, UniProt O95136); experiment: Antagonistic activity for EDG-5 (S1P-induced intracellular calcium, CHO cells); assay type: cell-based; conditions: CHO cells expressing human EDG-5, S1P 100 nM
T3 construct: expressed in transfected cells; host or cells: CHO cells
T3 sequence (O95136 whole entry): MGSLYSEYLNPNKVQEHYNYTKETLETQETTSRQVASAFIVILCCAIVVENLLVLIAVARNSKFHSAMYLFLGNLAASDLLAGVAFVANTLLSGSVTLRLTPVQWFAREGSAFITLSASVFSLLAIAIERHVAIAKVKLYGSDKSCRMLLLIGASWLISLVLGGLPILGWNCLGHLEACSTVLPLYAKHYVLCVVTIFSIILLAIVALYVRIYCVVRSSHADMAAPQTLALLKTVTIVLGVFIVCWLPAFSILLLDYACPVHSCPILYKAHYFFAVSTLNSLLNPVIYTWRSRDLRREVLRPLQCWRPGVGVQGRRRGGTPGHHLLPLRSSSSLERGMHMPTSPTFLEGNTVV
Procedure: Chinese hamster ovary (CHO) cells which expressed excessively human EDG-5 gene were cultured using a Ham's F12 medium (GIBCO BRL) containing 10% FBS (fetal bovine serum), penicillin/streptomycin, and blasticidin (5 μg/ml). Cultured cells were incubated in a Fura2 (5 μM) -AM solution [Ham's F12 medium containing FBS (10%), HEPES buffer (20 mM, pH7.4), and probenecid (2.5 mM)] at 37° C. for 60 minutes. Then washed once with a Hank's solution (2.5 mM) containing probenecid and immersed into the same solution. A plate was set on a fluorescent drug screening system, and measured for 30 seconds with no stimulation, a solution of a compound (dimethyl sulfoxide solution of 1 nM to 10 μM at the final concentration) to be tested was added. After lapse of 5 minutes, S1P (final concentration: 100 nM) was added, the intracellular calcium ion concentration before and after the addition was measured every 3 seconds (excitation wave length: 340 nm and 380 nm; fluorescent wave length: 500 nm). […]

[6] = tested on: Normal human airway smooth muscle cells; experiment: DNA synthesis (BrdU incorporation) of human airway smooth muscle cells induced by S1P; assay type: cell-based
Procedure: Normal human airway smooth muscle cells (BMSC; BioWhittaker) were cultured using MEM-A medium (GIBCO) containing 10% FBS (fetal calf serum), gentamicin (50 μg/mL), amphotericin B (50 ng/mL), and human bFGF, human insulin for 24 hours and deoxybromouridine (BrdU) was added.
Normal human airway smooth muscle cells (BMSC; BioWhittaker) were plated in 96 well plate using MEM-α medium containing human insulin at density of 1×10^4 cells/well. After 24 hour incubation, wash 2 times with Hanks solution, and serum-free medium (MEM-α/gentamicin (50 μg/mL), amphotericin B (50 ng/mL)) was added and incubated for 24 hours. S1P was added at the final concentration of 0.03 μM to 10 μM, deoxybromouridine (BrdU) was added at the same time, and incubated for 6 hours, and then the activity of BrdU incorporation was measured. As control, equal volume of physiological salt solution, which is vehicle of S1P, was added.
Cells were treated with BrdU, and culture supernatant was discarded. 150 μL of Cell fixation·DNA denaturation buffer was added to each well and incubated for 30 minutes. Cell fixation·DNA denaturation buffer was removed and blocking buffer (150 μL) was added. […] After 15 minutes, 25 μL of 2N sulfuric acid was added and absorbance at 450 nm was measured. […]

[7] = tested on: isolated trachea of guinea pig; experiment: Constriction of isolated trachea of guinea pig (magnus tube)
Procedure: The trachea of euthanized male Hartley ginea pig was removed and immersed quickly in Krebs-Henseleit solution (112 mmol/L sodium chloride, 5.9 mmol/L potassium chloride, 2.0 mmol/L calcium chloride, 1.2 mmol/L magnesium chloride, 1.2 mmol/L monobasic sodium phosphate, 25.0 mmol/L sodium hydrogen carbonate NaHCO3, 11.5 mmol/L glucose, 4° C.). A removed tissue was hooked as helical sample in magnus tube (volume: 10 mL) filled with Krebs-Henseleit solution (37±1° C., [aerated with 95% O2+5% CO2]). After stabilizing for 60 minutes in tensioned condition with 1 g, contraction was measured by recorder from force displacement transducer via distortion amplifier. The contraction of control was obtained by high concentration solution of potassium chloride (sodium chloride in Krebs-Henseleit solution was all exchanged to potassium chloride), or by stimulation with leukotriene D4 (LTD4) or histamine. After contraction by S1P, EDG-5 antagonist was added. Washing process of a specimen was repeated just in time, after hooked in magnus tube.

[8] = tested on: anesthetized guinea pig; experiment: Airway resistance of guinea pig after intravenous administration; assay type: in vivo; conditions: injected intravenously
Procedure: Male guinea pigs (Standard Hartley, 5 to 7 weeks-old, 300 to 500 g body weight in use) were anesthetized by pentobarbital (50 mg/kg intraabdominal dosage), and fixed at dorsal position. Then, trachea and jugular were cannulated. S1P was injected intravenously, and airway resistance was measured as described in Example 1.

[9] = tested on: anesthetized guinea pig; experiment: Airway resistance of anesthetized guinea pig after inhalation (modified Konzett and Rossler method); assay type: in vivo; conditions: for increase of airway resistance: inhalation for five minutes, 0.01 to 1 mg/mL, S1P effect at 0.1 to 1 mg/mL
Procedure: (§1) The measurement of guinea pig airway resistance was carried out by the modified Konzett and Rossler method (Naunyn-Schmied. Arch. Exp. Path. Pharmak. 195, 71- ). Male Hartley guinea pigs (5 to 7 weeks-old, 300 to 500 g body weight in use) were anesthetized by pentobarbital (50 mg/kg intraabdominal dosage), and fixed at dorsal position. Then, trachea and jugular were cannulated. Airway was managed by a respirator (5 mL/stroke, 60 strokes/min) and air road was diverged with a T-tube and connected to broncho-spasm-transducer and airway resistance was measured. To guinea pigs, gallamine (1 mg/kg, i.v.) was administered and immobilized. In this connection, acetylcholine was administered (30 μg/kg, i.v.) before inhalation of a compound in order to ascertain that that there was no considerable difference in sensitivity of transient airway constriction between individual animals, and then, animals which have coordinative sensitivity were used. S1P (Alexis) was vaporized and inhaled with supersonic wave type nebulizer (Omron NE U-07) for five minutes (Jpn. J. Pharm. 50, 445-466 (1989)). Complete obstruction (total area) was calculated as area as follows; deduct the value of airway resistance at startup of S1P inhalation from the value of airway resistance that is obtained at the time of clamping the tube of tracheal cannula side, and obtained value is multiplied by 10 minutes (5 minutes for inhalation and 5 minutes for post-inhalation). […] S1P (0.01 to 1 mg/mL) was inhaled to anesthetized guinea pig and airway resistance was measured. The reference example was carried out using 10% meylon and sphingosine (Matreya, 0.01 to 1 mg/mL) with method described in example 1.

[10] = tested on: anesthetized guinea pig; experiment: Effect of pre-treatment on increase of airway resistance induced by S1P; assay type: in vivo; conditions: pretreatment 100 μg/mL, i.v.
Procedure: as §1, with “S1P (Alexis) was vaporized and inhaled with supersonic wave type nebulizer (Omron NE U-07) for five minutes (Jpn. J. Pharm. 50, 445-466 (1989)).” left out, “The reference example was carried out using 10% meylon and sphingosine (Matreya, 0.01 to 1 mg/mL) with method described in example 1.” left out

IC50 [3]: > 10 µM
IC50 [4]: > 10 µM
IC50 [5]: 0.01 µM
SMILES: Cc1nn(C)c2nc(NNC(=O)Nc3c(Cl)cncc3Cl)cc(C(C)C)c12 [Compound 1, N-(1H-1,3-dimethyl-4-isopropylpyrazolo[3,4-b]pyridine-6-yl)amino-N′-(3,5-dichloropyridine-4-yl)urea]
LDH activity in medium [1]: did not enhancement LDH activity in medium
inhibition of increase of airway resistance induced by S1P [2]: inhibited
antagonism of S1P-induced BrdU incorporation ([6]; compound 0.01 μM to 10 μM, S1P 3 μM, 6 hours): antagonized against S1P
inhibition of constriction induced by S1P ([7]; added after contraction by S1P): inhibited constriction induced by S1P

SMILES: CCCCCCCCCCCCC/C=C/[C@@H](O)[C@@H](N)COP(=O)(O)O [Compound S1P, (2S, 3R, 4E)-2-amino-3-hydroxyoctadeca-4-enyl-1 phosphate]
increase of airway resistance [8]: Increase of airway resistance was observed
increase of airway resistance compared with histamine [8]: slight compared with that of histamine
increasing effect on airway resistance compared with inhalation of histamine ([9]; inhalation 0.01 to 1 mg/mL, converted to number of moles): at the same level
increase of airway resistance [9]: strong increase of airway resistance was observed
DNA synthesis of human airway smooth muscle cells ([6]; S1P 0.03 μM to 10 μM, BrdU 6 hours): induces DNA synthesis
contraction of guinea pig trachea ([7]; S1P 10 μmol/L): very slow contraction
rate of contraction relative to other constricting drug (LTD4, histamine etc.) ([7]; S1P 10 μmol/L): 3 to 5 fold slower
time to plateau of contraction ([7]; S1P 10 μmol/L): 30 to 60 min

SMILES: NCCc1c[nH]cn1 [histamine]
increase of airway resistance [8]: increase
increase of airway resistance [9]: increase of airway resistance

SMILES: CC(C)(C)NCC(O)c1ccc(O)c(CO)c1 (stereo not shown) [salbutamol]
inhibition of increase of airway resistance induced by S1P [10]: inhibited only partially

SMILES: CCCCCCCCCCCCC/C=C/[C@@H](O)[C@@H](N)CO [sphingosine]
increase of airway resistance [9]: increase of airway resistance was not observed
